Experimental data reported in patent US20250222045A1, “BIFIDOBACTERIUM LONGUM SUBSP. INFANTIS, MICROBIAL AGENT AND USE THEREOF” (GUANGZHOU JIYAN COSMETICS TECHNOLOGY CO., LTD., priority 2024, published 2025).

Key:
MMP-1 = assay: UVA-irradiated fibroblasts, special dosing (UVA continuous irradiation): MMP1 ELISA; assay type: cell-based; conditions: Filtrate 1%, Lysate 0.5%, Filtrate + lysate 0.3125%, Pro-xylane 10 mg/mL, Edelweiss 0.625%
Method: (§1) Cell inoculation: After resuscitation of cells, when a plating rate reached about 60%, the cells were inoculated in 6-well plates, and incubated overnight in the CO2 incubator (37° C., 5% CO2).
Dosing: When the plating rate of the cells in the 6-well plates reached about 50%˜60%, UVA irradiation of 30 J/cm^2 was performed on groups with UVA irradiation, and after the irradiation was finished, dosing was performed for the groups respectively, with each group in triplicate. The blank control group and the negative control group were added with 2 mL of the culture solution per well, the positive control group was added with 2 mL of the TGF-β1-containing culture solution per well, and the sample group was added with 2 mL of the test sample-containing culture solution at a corresponding concentration per well. After the dosing was completed, the 6-well plates were cultured in the CO2 incubator (37° C., 5% CO2) […] for 24 h. The above operations were repeated for 3 times. […]
(§2) Statistical analysis of results: GraphPad Prism Program software was applied for plotting, and results were expressed as Mean±SD. Comparison between the groups was statistically analyzed using t-test. […]

p16 gene = assay: UVA-irradiated fibroblasts, special dosing: p16 PCR; assay type: cell-based; conditions: 10 mg/mL
Method: as §1
(§3) Dosing: When the plating rate of the cells in the 6-well plates reached about 50%˜60%, UVA irradiation of 30 J/cm^2 was performed on groups with UVA irradiation, and after the irradiation was finished, dosing was performed for the groups respectively, with each group in triplicate. […]
(§4) Detection of gene expression: After the incubation was finished, PBS cleaning was performed twice with 1 mL/well, each well was added with 1 mL of RNAiso Plus, to pipet and lyse the cells, after which samples were collected. RNA was extracted and subjected to reverse transcription to cDNA to undergo fluorescence quantitative PCR detection, and result was calculated by the […] method.
as §2

NF-κB gene = assay: UVA-irradiated fibroblasts, special dosing: NF-κB PCR; assay type: cell-based; conditions: Filtrate 0.1%, Lysate 0.5%, Filtrate + lysate 0.3125%, Pro-xylane 10 mg/mL
Method: as §1, §3, §4, §2

p21 gene = assay: UVA-irradiated fibroblasts, special dosing: p21 PCR; assay type: cell-based; conditions: 10 mg/mL
Method: as §1, §3, §4, §2

IL-1β = assay: Macrophage-based inflammatory factor test (LPS), IL-1β ELISA; assay type: cell-based; conditions: macrophages, dosed 2 h, then LPS 22 h, BC 2.83, NC 76.40, dexamethasone 0.01%, Filtrate 0.5%, CLR bifida ferment lysate 1%
Method: (§5) <1> Formulation of working solution of positive control group (dexamethason): 2 μL of 10% mother liquor was sucked and dissolved in 2 mL of the culture solution to formulate 0.01% dexamethasone.
(§6) <2> Formulation of 1 μg/mL LPS-containing working solution: 2 mg/mL LPS stock solution was diluted to 1 μg/mL with the test-substance working solution remaining, negative control working solution and positive control working solution, respectively, after the dosing.
(§7) <1> Cell inoculation: the cells were inoculated in 6-well plates at an inoculation density of 2.2×10^5 per well, 2 mL of a cell suspension was added to each well, the inoculated cell culture plates continued to be cultured in the incubator for 24 h (5% CO2, 37° C.).
(§8) <2> Original cell culture solution in the wells was sucked out and discarded. The sample group was added with 1.8 mL of the test substance-containing culture solution at a corresponding concentration per well; the negative control group was added with 1.8 mL of a solvent control culture solution per well; the positive control group was added with 1.8 mL of a positive control culture solution per well; and the blank control group was added with 1.8 mL of a normal culture solution per well.
(§9) <3> After the dosing was completed, the 6-well plates were cultured in a cell incubator (5% CO2, 37° C.) for 2 h. […]

PGE2 = assay: Keratinocyte-based inflammatory factor test (UVB), PGE2 ELISA; assay type: cell-based; conditions: keratinocytes, dosed 24 h, UVB 300 mJ/cm^2, 24 h, BC 165.31, NC 492.42, dexamethasone 0.01%, Filtrate 0.3125%, Lysate 1%, Filtrate + lysate 0.0781%, Centella asiatica 0.625 mg/mL
Method: (§10) Cell inoculation: After resuscitation of cells, when a plating rate reached about 60%, the cells were inoculated in 6-well plates, and incubated overnight in a CO2 incubator (37° C., 5% CO2).
(§11) Dosing: According to test groups in TABLE 19, when the plating rate of the cells in the 6-well plates reached about 30%˜50%, dosing was performed for the groups respectively, with each group in triplicate. The blank control group and the negative control group were added with 2 mL of a culture solution per well, the positive control group was added with 2 mL of a dexamethasone-containing culture solution per well, and the sample group was added with 2 mL of a test sample-containing culture solution at corresponding concentration per well. After the dosing was completed, the 6-well plates were cultured in the CO2 incubator (37° C., 5% CO2) for 24 h.
UVB irradiation: after the cells are cleaned in PBS, according to the test groups, remaining groups other than the blank control group were all subjected to UVB irradiation, with an irradiation dosage of 300 mJ/cm^2. […]
(§12) Statistical analysis of results: GraphPad Prism was applied for plotting, and results were expressed as Mean±SD. Comparison between the groups was statistically analyzed using t-test. […]

IL-6 = assay: Macrophage-based inflammatory factor test (LPS), IL-6 ELISA; assay type: cell-based; conditions: macrophages, dosed 2 h, then LPS 22 h, BC 0.50, NC 2224.08, dexamethasone 0.01%, Filtrate 0.5%, CLR bifida ferment lysate 1%
Method: as §5, §6, §7, §8, §9

[1] = system: 3D epidermal skin model (EpiKutis®); assay: SLS-stimulated 3D epidermal skin model (EpiKutis), tissue morphology H&E; assay type: cell-based; conditions: 0.1% SLS 30 min, then 24 h, filtrate 5%, lysate 5%, combination 5%, madecassoside 0.625 mg/mL, PC WY14643, FIG. 19
Source text: Tissue morphology: Tissue morphology is microscopic physiological structure analysis of tissues after HE staining. Through the tissue morphology of the model, changes in the skin barrier under different treatment conditions can be seen, for example, after SLS damage, the skin barrier becomes loose, thickness of a living cell layer decreases, and such damage can be ameliorated after treatment with active substances.
1) Formulation of 0.1% SLS working solution: 0.006 g of SLS was weighed and dissolved in 6 mL of a PBS solution, filtered by 0.22 μm, and formulated into the 0.1% SLS working solution for later use.
2) Formulation of working solution of positive control group (50 μM WY14643): 10 μL of 30 mM WY14643 mother liquor was sucked and dissolved in 6 mL of the culture solution to be formulated into 50 μM WY14643. […]
The models for detection of tissue morphology were fixed using 4% paraformaldehyde. After 24 h of fixation, H&E staining detection was performed, photographs were taken under a microscope and observed, and pictures were collected and analyzed.
as §12

Keratinocyte = assay: Cell scratch test, keratinocyte cell mobility; assay type: cell-based; conditions: Filtrate 0.3125%, Lysate 0.5%, Filtrate + lysate 0.0781%, Madecassoside 0.625 mg/mL, B5 1.25 mg/mL
Source text: Cell migration capability is an important capability of repairing after tissue damage. After the tissue damage, the body will initiate repair of a damaged part, including enhancement of longitudinal cell proliferation capability and lateral crawling and migration of cells in surrounding parts of the damage to the damaged part. Cells cover the damaged part by crawling and migration.
as §10
as §11, with “9,” for “19,”, “70%˜80%,” for “30%˜50%,”, “was” for “and the negative control group were”, “an EGF-containing” for “a dexamethasone-containing”, “continued to be” for “were”, “h. […]” for “h.”
Statistical analysis of results: GraphPad Prism was applied for plotting, and results were expressed as Mean±sD. Comparison between the groups was statistically analyzed using t-test. […]

Claudin-1 gene = assay: Keratinocyte gene expression PCR: Claudin-1; assay type: cell-based, human; conditions: keratinocytes (HaCaT), 24 h, 2^−ΔΔCT, BC=1.00; PC VE 0.05%, Filtrate 0.3125%, Lysate 0.5%, Filtrate + lysate 0.0781%, Madecassoside 0.625 mg/mL, CLR lactic acid bacteria 0.5%
Method: Cell inoculation: After resuscitation of the cells, when the plating rate reached about 60%, the cells were inoculated in the 6-well plates, and incubated overnight in the CO2 incubator (37° C., 5% CO2).
Dosing: According to test groups in TABLE 11 to TABLE 17, when the plating rate of the cells in the 6-well plates reached about 40%˜60%, dosing was performed for the groups respectively, with each group in triplicate. The blank control group was added with 2 mL of the culture solution per well, the positive control group was added with 2 mL of a VE-containing culture solution per well, and the sample group was added with 2 mL of the test sample-containing culture solution at a corresponding concentration per well. After the dosing was completed, the 6-well plates were cultured in the CO2 incubator (37° C., 5% CO2) for 24 h. […]
Detection of gene expression: RNA was extracted and subjected to reverse transcription to cDNA to undergo fluorescence quantitative PCR detection, and result was calculated by a 2^−ΔΔCT method.
as §12

CC(O)C[C@@H]1OC[C@@H](O)[C@H](O)[C@H]1O (some centres unmarked) [Pro-xylane]
MMP1 Down-regulation Rate (vs NC) (MMP-1): 17.94%
MMP1 Mean Concentration (MMP-1; fibroblasts, UVA 30 J/cm^2 then dosing 24 h, repeated 3 times, ELISA, BC 359379.29, NC 1075513.35, PC TGFβ1 100 ng/mL): 882584.62 pg/mL
p16 Down-regulation Rate (vs NC) (p16 gene): 35.37%
p16 gene expression, Mean (p16 gene): 1.06
NF-κB gene expression, Inhibition Rate (vs NC) (NF-κB gene): 65.13%
NF-κB gene expression, Mean (NF-κB gene; fibroblasts, UVA 30 J/cm^2 then dosing 24 h, repeated 3 times, BC 1.00, NC 1.52, PC TGFβ1 100 ng/mL): 0.53
p21 gene expression, Mean (p21 gene): 1.88

C[C@@H]1C[C@H]2[C@@H]3CCC4=CC(=O)C=C[C@]4(C)[C@@]3(F)[C@@H](O)C[C@]2(C)[C@@]1(O)C(=O)CO [dexamethasone]
IL-1β Mean Concentration (IL-1β): 8.51 pg/mL
PGE2 Mean Concentration (PGE2): 159.23 pg/mL
IL-6 Mean Concentration (IL-6): 193.04 pg/mL

Madecassoside
Tissue morphology (H&E) compared with the NC group [1]: the phenomenon of living cell damage is obviously ameliorated
Relative Mobility Mean (Keratinocyte; keratinocytes, dosed 24 h, 24 h after scratching, BC=1.00, PC EGF 1 ng/mL): 1.02
Relative mobility, Increase Rate (Keratinocyte; vs BC): 2.00%
Claudin-1 gene expression, Mean (Claudin-1 gene): 0.96
